Results as given in ChEMBL document CHEMBL3751832, “Synthesis, in vitro and computational studies of 1,4-disubstituted 1,2,3-triazoles as potential α-glucosidase inhibitors” (Bioorg Med Chem Lett, 2016).
Where a name gives a salt, the structure may show the parent alone.

assay: Inhibition of yeast type-3 alpha-glucosidase using p-nitrophenyl-alpha-D-glucopyranoside as substrate after 30 mins; set-up: species or system Saccharomyces cerevisiae

| IC50 [µM] | SMILES |
| --- | --- |
| 235 | O=[N+]([O-])c1ccc(-n2cc(-c3ccccc3)nn2)cc1 |
| 255 | COC(=O)Cn1cc(-c2ccccc2)nn1 |
| 3.49 | OC[C@H]1NC[C@H](O)[C@@H](O)[C@@H]1O [DUVOGLUSTAT HYDROCHLORIDE] |
| 320 | O=[N+]([O-])c1ccc(-n2cc(C3(O)CCCCC3)nn2)cc1 |
| 49.7 | N#Cc1cc([N+](=O)[O-])ccc1-n1cc(C2(O)CCCCC2)nn1 |
| 313 | CC(=O)c1ccccc1-n1cc(-c2ccccc2)nn1 |
| 320 | CC(=O)c1cccc(-n2cc(C3(O)CCCCC3)nn2)c1 |
| 265 | CC(=O)c1cccc(-n2cc(-c3ccccc3)nn2)c1 |
| 370 | OC1(c2cn(-c3ccccc3Cl)nn2)CCCCC1 |
| 245 | COc1cccc(-n2cc(C3(O)CCCCC3)nn2)c1 |
| 57.2 | Clc1ccccc1-n1cc(-c2ccccc2)nn1 |
